Consider 29 molecules from EP0922455A1, “HIV-1 PROTEASE INHIBITORS, PROCESS FOR PRODUCING THE SAME, AND MEDICINAL COMPOSITIONS” (NISSUI PHARMACEUTICAL CO., LTD., priority 1997, dated 1998).

Assay [1] deals with T1, HIV-1 protease (Human immunodeficiency virus type 1 group M subtype B, UniProt P03366). Nature of the assay: inhibitory activity against HIV-1 protease (cleavage of substrate Suc-Ser-Gln-Asn-Tyr-Pro-Ile-Val-Gln, HPLC / PICO-TAG analysis). It counts as biochemical. More on the design: β-galactosidase (fusion partner in the expressed precursor); made in house; host or cells: E. coli K12 (UT481). As for the experimental part:
(§1) Plasmid pLB550-1 for expressing a fusion protein of partial pol protein containing HIV-1 protease and β-galactosidase was transfected into E. coli K12 (UT481) [Werman, K. F. et al. J. Bacteriol, 163: 376 - 384 (1985)] by the CaCl2 method, and was enzyme-induced by isopropyl-β-D(-)-thiogalactopyranoside and was cultured for 6 hours. Thereafter, the bacteria were collected. The bacterial were treated with lysozyme and crashed with glass beads. Subsequently, the solubilized supernatant was purified by DEAE-cellulofine, SP-Toyopearl and pepstatin A agarose column chromatography, to obtain a purified HIV-1 protease.
Synthesized peptide composed of Suc-Ser-Gln-Asn-Tyr-Pro-Ile-Val-Gln as a substrate was dissolved into 50 mM MES-NaOH buffer solution (pH 5.5) so that its concentration in enzyme reaction would be 0.57 mM, 1.25 mM, 1.43 mM, 1.67 mM and 2.0 mM. Into 50 µl of these substrate solutions, 50 µl of the purified enzyme solution of HIV-1 protease, obtained in the aforementioned preparing step, was added and then enzyme reaction was carried out at 37°C for 0 , 5, 10 and 15 minutes, respectively. To these solutions, 11.1 µl of acetonitryl containing 1% TFA was added to stop the enzyme reaction. The peptides obtained by the enzyme reaction were separated by high-performance liquid chromatography. Thereafter, enzyme activity thereof was measured by means of a PICO-TAG amino acid composition analyzing device. The initial velocities at the respective concentrations of the substrate were calculated and then analysis was performed based on by Lineweaver-Burk plots. […] In the substrate, the cleavage region was between Tyr and Pro.
On the other hand, the synthesized peptide, Suc-Ser-Gln-Asn-Tyr-Pro-Ile-Val-Gln as a substrate was used to measure inhibitory activity of the peptide of the sequence number 1 against HIV-1 protease as follows: 50 µl of the enzyme solution was added to 30 µl of solution of the peptide of the sequence number 1 in which the peptide was dissolved into 50 mM of MES-NaOH buffer solution (pH 5.5) so that its final concentration would be 10, 20, 40, 100 and 200 µM, and then enzyme reaction was carried out at 37 °C for 30 minutes.
Next, the solution of the substrate, Suc-Ser-Gln-Asn-Tyr-Pro-Ile-Val-Gln was added thereto so that its final concentration would be 1 mM, and then enzyme reaction was carried out at 37 °C for 0, 5, 10 and 15 minutes. To these solutions, 11.1 µl of acetonitryl containing 1% TFA was added to stop the enzyme reaction. The peptides obtained by the enzyme reaction were separated by high-performance liquid chromatography. Thereafter, enzyme activity thereof was measured by means of a PICO-TAG amino acid composition analyzing device. […] (The relative activity is represented as a percentage relative to the enzyme activity (value: 100) in the absence of the peptide of the sequence number 2.) From this graph, IC50 was calculated and obtained, so that IC50 was 10 µM.
50 µl of the enzyme solution was added to 30 µl of the peptide of the sequence number 2 dissolved into 50 mM of MES-NaOH buffer solution so that its final concentration would be 10 µM and then enzyme reaction was carried out at 37 °C for 30 minutes. The solution of the substrate, Suc-Ser-Gln-Asn-Tyr-Pro-Ile-Val-Gln was added thereto so that its final concentration would be 0.579 1.0, 1.43, 2.0 and 2.5 mM, and then enzyme reaction was carried out at 37 °C for 0, 5, 10 and 15 minutes. To these solutions, 11.1 µl of acetonitryl containing 1% TFA was added to stop the enzyme reaction, and then analysis was performed from Lineweaver-Burk plots. […] A control experiment was carried out in the absence of the peptide of the sequence number 2, in the same way.
(§2) Concerning these 30 kinds of compounds, inhibitory effect against of HIV protease and IC50 were measured in the same way as in 2) in Example 1.

Assay [2] deals with T1, HIV-1 protease. Described as above. The format is biochemical. Also noted: partial pol protein containing HIV-1 protease; β-galactosidase (fusion partner in the expressed precursor); made in house; host or cells: E. coli K12 (UT481). As to conditions: same way as in 2) in Example 1. As for the experimental part: as §1
Synthesized peptide composed of Suc-Ser-Gln-Asn-Tyr-Pro-Ile-Val-Gln as a substrate was dissolved into 50 mM MES-NaOH buffer solution (pH 5.5) so that its concentration in enzyme reaction would be 0.57 mM, 1.25 mM, 1.43 mM, 1.67 mM and 2.0 mM. […] Thereafter, enzyme activity thereof was measured by means of a PICO-TAG amino acid composition analyzing device. The initial velocities at the respective concentrations of the substrate were calculated and then analysis was performed based on by Lineweaver-Burk plots. […]
as §2

Assay [3] deals with T1, HIV-1 protease. Also noted: β-galactosidase (fusion partner in the expressed precursor); made in house; host or cells: E. coli K12 (UT481). As to conditions: Biochem. Biophys. Res. Commun. 194: 595 - 600; cited from earlier work.
The mark [4] stands for this setting: class symbols, inhibitory effect at 500 µM or less, read-out: IC50(µM) (Inhibitory effect).
Where [5] appears, read: same way as in 2) in Example 1, read-out: IC50.

Where two headings read alike, the source gives them in different places. *1 amine or outer side, *2 acyl side, *3 side chain or, on linkers, in order; H or OH if unused. Where a SMILES comes first, the peptide text is derived from it. Where no end group is shown, it is not given here. [ ]: non-standard residue; d: D form. The star is where a group is joined. Myristoyl = CCCCCCCCCCCCCC(=O)*; Suc = O=C(CCC(=O)[*:2])[*:1]; Aoc = NCCCCCCCC(=O)O; Ahx = NCCCCCC(=O)O

The IC50 is the concentration that gives 50% inhibition. Take `CC[C@H](C)[C@H](NC(=O)[C@@H](NC(=O)[C@H](C)NC(=O)[C@@H]1CCCN1C(=O)[C@H](CC(N)=O)NC(=O)[C@@H](NC(=O)[C@@H](NC(=O)[C@H](CCC(N)=O)NC(=O)[C@H](CO)NC(=O)[C@H](CCSC)NC(=O)[C@H](C)NC(=O)[C@H](CCC(=O)O)NC(=O)[C@H](C)N)C(C)C)[C@@H](C)O)[C@@H](C)O)C(=O)N[C@@H](CCSC)C(=O)O` [Compound 3, AEAMSQVTNPATIM]: on HIV-1 protease [1] (setting [4]), the IC50 was at least 500 µM. As for `CC[C@H](C)[C@H](NC(=O)[C@@H](NC(=O)[C@H](C)NC(=O)[C@@H](NC(=O)[C@H](CC(N)=O)NC(=O)[C@@H](NC(=O)[C@@H](NC(=O)[C@H](CCC(N)=O)NC(=O)[C@H](CO)NC(=O)[C@H](CCSC)NC(=O)[C@H](C)NC(=O)[C@H](CCC(=O)O)NC(=O)[C@H](C)N)C(C)C)[C@@H](C)O)[C@@H](C)O)[C@@H](C)O)C(=O)N[C@@H](CCSC)C(=O)O` [Compound 4, AEAMSQVTNTATIM], the IC50 on HIV-1 protease [1] (setting [4]) was at most 500 µM. On the same count and under the same terms, under `CSCC[C@H](NC(=O)[C@H](C)NC(=O)[C@H](CCC(=O)O)NC(=O)[C@H](C)N)C(=O)N[C@@H](CO)C(=O)N[C@@H](CCC(N)=O)C(=O)NCCCCCCCC(=O)O` [Compound 14, AEAMSQAoc] (H-AEAMSQ[Aoc]-OH) stands at least 500 µM. The same measure, in the same setting: the result for `CSCC[C@H](NC(=O)[C@H](C)NC(=O)[C@H](CCC(=O)O)NC(=O)[C@H](C)N)C(=O)N[C@@H](CO)C(=O)N[C@@H](CCC(N)=O)C(=O)NCCCCCC(=O)O` [Compound 15, AEAMSQAhx] (H-AEAMSQ[Ahx]-OH) reads at least 500 µM. On to `CSCC[C@H](NC(=O)[C@H](C)NC(=O)[C@H](CCC(=O)O)NC(=O)[C@H](C)NC(=O)CCC(=O)O)C(=O)N[C@@H](CO)C(=O)N[C@@H](CCC(N)=O)C(=O)NCCCCCC(=O)O` [Compound 16, Suc-AEAMSQAhx] (Suc-AEAMSQ[Ahx]-OH), for which the IC50 at HIV-1 protease [1] (setting [4]) was at least 500 µM. In the case of `CCCCCCCCCCCCCC(=O)N[C@@H](C)C(=O)N[C@@H](CCC(=O)O)C(=O)N[C@@H](C)C(=O)N[C@@H](CCSC)C(=O)N[C@@H](CO)C(=O)N[C@@H](CCC(N)=O)C(=O)O` [Compound 18, N-Myr-AEAMSQ] (Myristoyl-AEAMSQ-OH), the concentration for half-maximal inhibition (IC50) on HIV-1 protease [1] (setting [5]) stood at 79 µM.

`CSCC[C@H](NC(=O)[C@H](C)NC(=O)[C@H](CCC(=O)O)NC(=O)[C@H](C)N)C(=O)O` [Compound 19, AEAM] (H-AEAM-OH): on HIV-1 protease [1] (setting [4]), the IC50 was at least 500 µM. As for `CCCCCCCCCCCCCC(=O)N[C@@H](C)C(=O)N[C@@H](CCC(=O)O)C(=O)N[C@@H](C)C(=O)N[C@@H](CCSC)C(=O)O` [Compound 20, N-Myr-AEAM] (Myristoyl-AEAM-OH), the IC50 on HIV-1 protease [1] (setting [5]) came to 16 µM.

For `CC(C)[C@H](N)C(=O)N[C@H](C(=O)N[C@@H](CC(N)=O)C(=O)O)[C@@H](C)O` [Compound 21, VTN] (H-Val-Thr-Asn-OH), the IC50 on HIV-1 protease [1] (setting [4]) was at least 500 µM.

Consider `CCCCCCCCCCCCCC(=O)N[C@@H](CCSC)C(=O)O` [Compound 23, N-Myr-M], for which, at HIV-1 protease [2], half-maximal inhibition (IC50) required 44 µM. Still for that read-out and setting: under `CCCCCCCCCCCC(=O)N[C@@H](CCSC)C(=O)O` [Compound 25, N-Lau-M] stands 124 µM. `CSCC[C@H](NC(=O)CCCCCCCN)C(=O)O` [Compound 27, N-AocM]: the IC50 at HIV-1 protease [1] (setting [4]) was at least 500 µM.

Consider `CSCC[C@H](NC(=O)CCCCCCCN)C(=O)NCCCCCCCC(=O)O` [Compound 28, N-AocMAoc], for which the IC50 at HIV-1 protease [1] (setting [4]) is at least 500 µM. The same measure, in the same setting: the result for `CSCC[C@H](NC(=O)CCCCCCCN)C(=O)NCCCCCCCC(=O)NCCCCCCCC(=O)O` [Compound 29, N-AocMAocAoc] reads at least 500 µM; that for `CSCC[C@H](NC(=O)CCCCCCCNC(=O)CCCCCCCN)C(=O)NCCCCCCCC(=O)O` [Compound 30, N-AocAocMAoc], at least 500 µM. Usually Km stands for the concentration of substrate that gives half-maximal velocity. In the case of `CC[C@H](C)[C@H](NC(=O)[C@@H]1CCCN1C(=O)[C@H](Cc1ccc(O)cc1)NC(=O)[C@H](CC(N)=O)NC(=O)[C@H](CCC(N)=O)NC(=O)[C@H](CO)NC(=O)CCC(=O)O)C(=O)N[C@H](C(=O)N[C@@H](CCC(N)=O)C(=O)O)C(C)C` [Suc-Ser-Gln-Asn-Tyr-Pro-Ile-Val-Gln, reference compound] (Suc-SQNYPIVQ-OH), on HIV-1 protease [1] (substrate 0.57-2.0 mM, pH 5.5, 37°C, Lineweaver-Burk plots (Fig. 1)), the Km was found to be 2200 µM.

Regarding AAAMSQVTN [Compound 7, AAAMSQVTN], the half-inhibitory concentration (IC50) on HIV-1 protease [1] (setting [4]) was at most 500 µM. Same read-out and setting: the result for AEAASQVTN [Compound 8, AEAASQVTN] reads at least 500 µM; that for AEAMAQVTN [Compound 9, AEAMAQVTN], at most 500 µM. Still for that read-out and setting: under AEAMSQ [Compound 17, AEAMSQ] stands at least 500 µM. Still for that read-out and setting: under AEAMSQV [Compound 13, AEAMSQV] stands at least 500 µM; under AEAMSQVAN [Compound 10, AEAMSQVAN], at least 500 µM; under “AEAMSQVANTATIM [Compound 5, AEAMSQVANTATIM]”, at most 500 µM.

With AEAMSQVT [Compound 12, AEAMSQVT], the IC50 on HIV-1 protease [1] (setting [4]) is at least 500 µM.

As to AEAMSQVTL [Compound 11, AEAMSQVTL], the IC50 on HIV-1 protease [1] (setting [5]) was 53 µM. On the same count and under the same terms, under AEAMSQVTN [Compound 6, AEAMSQVTN] stands 6 µM.

Regarding “AEAMSQVTNSATIM [Compound 2, AEAMSQVTNSATIM]”, the half-inhibitory concentration (IC50) on HIV-1 protease [1] (setting [5]) stood at 22 µM. Turning to Ac-TVSFNF, the inhibitory activity entry on HIV-1 protease [3] is “has inhibitory activity”. Take VTNTATIM [Compound 22, VTNTATIM]: the IC50 at HIV-1 protease [1] (setting [4]) was at least 500 µM.
